Results taken from US12275731B2, “Azaindole inhibitors of wild-type and mutant forms of LRRK2” (DANA-FARBER CANCER INSTITUTE, INC., priority 2018, dated 2025).

Legend:
Assay in all cases: KinomeScan profiling
Format in all cases: binding
MRCKB = MRCKB (Homo sapiens, UniProt Q9Y5S2); details: read-out: % control
Summary of the method: (§1)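 Luminescence (RLU) was converted to percent of control, with DMSO set as 100% and a reference compound as 0%. Test compounds were run at 1 μM against 468 kinases. Kinases showing below 35% of control were scored as bound.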

NDR1 = NDR1 (Homo sapiens, UniProt Q15208); details: NDR1, 1 μM; read-out: % control
Sequence of NDR1 (Q15208 whole entry): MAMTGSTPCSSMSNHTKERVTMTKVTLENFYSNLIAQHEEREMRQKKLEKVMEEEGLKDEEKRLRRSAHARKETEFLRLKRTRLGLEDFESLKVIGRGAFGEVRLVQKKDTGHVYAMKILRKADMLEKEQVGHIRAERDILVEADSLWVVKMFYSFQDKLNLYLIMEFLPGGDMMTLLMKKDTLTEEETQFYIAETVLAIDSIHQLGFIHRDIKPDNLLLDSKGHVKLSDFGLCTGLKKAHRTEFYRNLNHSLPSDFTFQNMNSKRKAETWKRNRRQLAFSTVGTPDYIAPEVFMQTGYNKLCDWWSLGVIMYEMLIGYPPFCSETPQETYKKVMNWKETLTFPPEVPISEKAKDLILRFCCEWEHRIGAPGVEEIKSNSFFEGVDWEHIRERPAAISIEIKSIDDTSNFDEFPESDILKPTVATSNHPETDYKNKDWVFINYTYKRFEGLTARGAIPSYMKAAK
Summary of the method: as §1

ABL1-phosphorylated = target: T1, ABL1-phosphorylated (Homo sapiens, UniProt P00519); details: read-out: % control
T1 construct: purchased KinomeScan®
T1 sequence (P00519 whole entry): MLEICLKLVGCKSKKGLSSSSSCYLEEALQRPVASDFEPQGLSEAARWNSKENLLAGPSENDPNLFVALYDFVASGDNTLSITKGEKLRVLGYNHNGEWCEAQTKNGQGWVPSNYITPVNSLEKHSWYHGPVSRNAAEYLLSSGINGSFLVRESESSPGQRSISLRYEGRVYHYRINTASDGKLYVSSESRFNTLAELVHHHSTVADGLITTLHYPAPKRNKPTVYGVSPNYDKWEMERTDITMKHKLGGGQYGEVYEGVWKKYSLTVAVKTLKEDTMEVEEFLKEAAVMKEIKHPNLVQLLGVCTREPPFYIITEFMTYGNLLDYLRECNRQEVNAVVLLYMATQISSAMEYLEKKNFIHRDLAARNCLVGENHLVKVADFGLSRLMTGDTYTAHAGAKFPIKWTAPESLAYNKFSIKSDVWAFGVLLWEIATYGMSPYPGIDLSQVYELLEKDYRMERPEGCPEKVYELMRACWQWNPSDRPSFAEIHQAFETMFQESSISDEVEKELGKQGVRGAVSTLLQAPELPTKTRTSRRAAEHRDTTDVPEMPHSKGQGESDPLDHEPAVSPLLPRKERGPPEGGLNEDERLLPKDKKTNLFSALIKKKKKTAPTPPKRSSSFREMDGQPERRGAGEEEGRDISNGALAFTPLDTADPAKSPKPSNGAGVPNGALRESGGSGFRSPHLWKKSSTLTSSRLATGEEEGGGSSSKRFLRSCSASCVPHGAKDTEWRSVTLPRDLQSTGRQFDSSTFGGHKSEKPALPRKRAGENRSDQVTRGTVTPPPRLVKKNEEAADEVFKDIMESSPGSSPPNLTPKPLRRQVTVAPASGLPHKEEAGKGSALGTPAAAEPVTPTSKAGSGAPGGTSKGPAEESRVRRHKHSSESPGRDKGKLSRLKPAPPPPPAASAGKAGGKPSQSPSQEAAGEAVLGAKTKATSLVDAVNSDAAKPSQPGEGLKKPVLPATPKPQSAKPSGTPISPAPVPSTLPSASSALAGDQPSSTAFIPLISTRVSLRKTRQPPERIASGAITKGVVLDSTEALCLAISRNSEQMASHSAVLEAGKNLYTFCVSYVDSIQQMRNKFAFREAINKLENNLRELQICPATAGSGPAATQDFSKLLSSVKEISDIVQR
Summary of the method: as §1

SGK3 = target: T2, SGK3 (Homo sapiens, UniProt Q96BR1); details: SGK3, 1 μM; read-out: % control
T2 construct: purchased KinomeScan® (panel service)
T2 sequence (Q96BR1 1-496): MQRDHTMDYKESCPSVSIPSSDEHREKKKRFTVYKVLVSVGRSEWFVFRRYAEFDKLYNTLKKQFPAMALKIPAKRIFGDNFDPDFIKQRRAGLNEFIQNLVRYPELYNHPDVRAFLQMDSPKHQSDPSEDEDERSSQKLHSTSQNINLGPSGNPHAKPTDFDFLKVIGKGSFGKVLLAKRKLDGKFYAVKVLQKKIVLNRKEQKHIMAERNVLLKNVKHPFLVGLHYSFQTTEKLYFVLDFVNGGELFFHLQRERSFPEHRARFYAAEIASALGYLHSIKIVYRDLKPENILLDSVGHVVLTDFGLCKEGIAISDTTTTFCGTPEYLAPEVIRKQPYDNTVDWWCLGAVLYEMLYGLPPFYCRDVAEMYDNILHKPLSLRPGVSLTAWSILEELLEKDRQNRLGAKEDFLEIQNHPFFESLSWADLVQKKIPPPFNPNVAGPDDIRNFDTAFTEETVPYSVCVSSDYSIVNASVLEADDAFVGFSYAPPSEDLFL
Summary of the method: as §1

CAMK1G = CAMK1G (Homo sapiens, UniProt Q96NX5); details: read-out: % control
Summary of the method: as §1

PAK4 = PAK4 (Homo sapiens, UniProt O96013); details: PAK4, 1 μM; read-out: % control
Sequence of PAK4 (O96013 whole entry): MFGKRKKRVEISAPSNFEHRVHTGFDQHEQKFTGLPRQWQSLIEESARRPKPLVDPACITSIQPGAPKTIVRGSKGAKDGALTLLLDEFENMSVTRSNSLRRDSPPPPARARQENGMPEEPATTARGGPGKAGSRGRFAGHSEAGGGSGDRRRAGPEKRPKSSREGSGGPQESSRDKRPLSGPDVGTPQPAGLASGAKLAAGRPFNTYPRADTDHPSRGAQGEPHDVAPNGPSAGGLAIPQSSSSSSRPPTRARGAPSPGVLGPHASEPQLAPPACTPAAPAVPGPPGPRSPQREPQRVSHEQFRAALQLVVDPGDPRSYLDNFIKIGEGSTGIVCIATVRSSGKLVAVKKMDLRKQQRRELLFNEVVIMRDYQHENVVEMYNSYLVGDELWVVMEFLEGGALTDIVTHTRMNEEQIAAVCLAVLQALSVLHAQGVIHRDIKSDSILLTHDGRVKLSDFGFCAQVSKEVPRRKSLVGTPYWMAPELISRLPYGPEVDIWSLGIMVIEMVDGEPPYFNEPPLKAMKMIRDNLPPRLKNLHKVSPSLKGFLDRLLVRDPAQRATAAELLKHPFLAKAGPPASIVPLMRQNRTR
Summary of the method: as §1

LIMK2 = LIMK2 (Homo sapiens, UniProt P53671); details: LIMK2, 1 μM; read-out: % control
Summary of the method: as §1

[1] = target: T3, RSK4(Kin.Dom.2-C-terminal) (Homo sapiens, UniProt Q9UK32); details: read-out: % control
T3 construct: RSK4(Kin.Dom.2-C-terminal)
T3 sequence (Q9UK32 426-683 limits assumed): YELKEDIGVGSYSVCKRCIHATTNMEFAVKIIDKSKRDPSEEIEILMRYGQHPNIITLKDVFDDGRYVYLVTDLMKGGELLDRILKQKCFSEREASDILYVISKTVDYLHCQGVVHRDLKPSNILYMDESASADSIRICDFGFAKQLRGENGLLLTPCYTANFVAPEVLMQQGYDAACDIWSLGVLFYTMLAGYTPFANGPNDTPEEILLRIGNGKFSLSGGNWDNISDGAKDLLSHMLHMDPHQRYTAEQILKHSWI
Summary of the method: as §1

YANK3 = YANK3 (Homo sapiens, UniProt Q86UX6); details: YANK3, 1 μM; read-out: % control
Summary of the method: as §1

GSK3A = GSK3A (Homo sapiens, UniProt P49840); details: read-out: % control
Summary of the method: as §1

ROS1 = ROS1 (Homo sapiens, UniProt P08922); details: ROS1, 1 μM; read-out: % control
Summary of the method: as §1

FER = FER (Homo sapiens, UniProt P16591); details: read-out: % control
Sequence of FER (P16591 whole entry): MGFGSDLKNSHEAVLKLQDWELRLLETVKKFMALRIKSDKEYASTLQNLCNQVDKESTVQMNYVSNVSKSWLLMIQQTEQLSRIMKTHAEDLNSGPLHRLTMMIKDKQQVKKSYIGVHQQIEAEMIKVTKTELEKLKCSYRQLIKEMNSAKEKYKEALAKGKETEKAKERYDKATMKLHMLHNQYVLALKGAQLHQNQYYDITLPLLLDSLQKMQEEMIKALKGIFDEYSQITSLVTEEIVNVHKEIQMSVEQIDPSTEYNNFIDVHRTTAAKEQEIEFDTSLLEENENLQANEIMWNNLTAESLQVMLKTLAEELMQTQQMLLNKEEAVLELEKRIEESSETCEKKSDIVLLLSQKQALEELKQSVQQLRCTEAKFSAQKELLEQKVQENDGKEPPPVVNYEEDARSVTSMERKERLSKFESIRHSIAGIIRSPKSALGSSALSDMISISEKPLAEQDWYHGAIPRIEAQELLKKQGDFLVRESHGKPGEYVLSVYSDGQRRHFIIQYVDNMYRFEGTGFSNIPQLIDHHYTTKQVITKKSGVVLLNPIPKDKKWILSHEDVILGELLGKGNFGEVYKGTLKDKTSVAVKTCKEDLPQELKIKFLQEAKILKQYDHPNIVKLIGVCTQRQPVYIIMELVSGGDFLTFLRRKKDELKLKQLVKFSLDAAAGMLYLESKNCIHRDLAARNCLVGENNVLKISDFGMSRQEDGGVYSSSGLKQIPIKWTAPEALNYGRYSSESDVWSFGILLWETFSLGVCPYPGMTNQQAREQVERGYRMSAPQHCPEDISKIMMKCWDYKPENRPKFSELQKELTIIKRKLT
Summary of the method: as §1

MAPKAPK5 = target: T4, MAPKAPK5 (Homo sapiens, UniProt Q8IW41); details: MAPKAPK5, 1 μM; read-out: % control
T4 sequence (Q8IW41 1-473): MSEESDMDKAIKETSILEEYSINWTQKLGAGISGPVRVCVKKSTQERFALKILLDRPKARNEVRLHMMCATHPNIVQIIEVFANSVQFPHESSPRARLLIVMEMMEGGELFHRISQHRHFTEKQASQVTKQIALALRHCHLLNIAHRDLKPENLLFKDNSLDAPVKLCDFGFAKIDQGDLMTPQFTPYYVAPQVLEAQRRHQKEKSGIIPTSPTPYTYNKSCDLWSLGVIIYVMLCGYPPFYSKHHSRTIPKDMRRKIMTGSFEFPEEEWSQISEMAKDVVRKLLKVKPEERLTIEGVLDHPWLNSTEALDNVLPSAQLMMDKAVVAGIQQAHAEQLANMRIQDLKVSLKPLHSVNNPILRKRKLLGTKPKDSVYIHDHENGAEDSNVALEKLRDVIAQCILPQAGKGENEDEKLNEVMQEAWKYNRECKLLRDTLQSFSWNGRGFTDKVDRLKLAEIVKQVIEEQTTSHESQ
Summary of the method: as §1

KIT(L576P) = target: T5, KIT(L576P) (Homo sapiens, UniProt P10721, L576P); details: read-out: % control
T5 construct: purchased KinomeScan®
Summary of the method: as §1

Sequence of MRCKB (Q9Y5S2 whole entry): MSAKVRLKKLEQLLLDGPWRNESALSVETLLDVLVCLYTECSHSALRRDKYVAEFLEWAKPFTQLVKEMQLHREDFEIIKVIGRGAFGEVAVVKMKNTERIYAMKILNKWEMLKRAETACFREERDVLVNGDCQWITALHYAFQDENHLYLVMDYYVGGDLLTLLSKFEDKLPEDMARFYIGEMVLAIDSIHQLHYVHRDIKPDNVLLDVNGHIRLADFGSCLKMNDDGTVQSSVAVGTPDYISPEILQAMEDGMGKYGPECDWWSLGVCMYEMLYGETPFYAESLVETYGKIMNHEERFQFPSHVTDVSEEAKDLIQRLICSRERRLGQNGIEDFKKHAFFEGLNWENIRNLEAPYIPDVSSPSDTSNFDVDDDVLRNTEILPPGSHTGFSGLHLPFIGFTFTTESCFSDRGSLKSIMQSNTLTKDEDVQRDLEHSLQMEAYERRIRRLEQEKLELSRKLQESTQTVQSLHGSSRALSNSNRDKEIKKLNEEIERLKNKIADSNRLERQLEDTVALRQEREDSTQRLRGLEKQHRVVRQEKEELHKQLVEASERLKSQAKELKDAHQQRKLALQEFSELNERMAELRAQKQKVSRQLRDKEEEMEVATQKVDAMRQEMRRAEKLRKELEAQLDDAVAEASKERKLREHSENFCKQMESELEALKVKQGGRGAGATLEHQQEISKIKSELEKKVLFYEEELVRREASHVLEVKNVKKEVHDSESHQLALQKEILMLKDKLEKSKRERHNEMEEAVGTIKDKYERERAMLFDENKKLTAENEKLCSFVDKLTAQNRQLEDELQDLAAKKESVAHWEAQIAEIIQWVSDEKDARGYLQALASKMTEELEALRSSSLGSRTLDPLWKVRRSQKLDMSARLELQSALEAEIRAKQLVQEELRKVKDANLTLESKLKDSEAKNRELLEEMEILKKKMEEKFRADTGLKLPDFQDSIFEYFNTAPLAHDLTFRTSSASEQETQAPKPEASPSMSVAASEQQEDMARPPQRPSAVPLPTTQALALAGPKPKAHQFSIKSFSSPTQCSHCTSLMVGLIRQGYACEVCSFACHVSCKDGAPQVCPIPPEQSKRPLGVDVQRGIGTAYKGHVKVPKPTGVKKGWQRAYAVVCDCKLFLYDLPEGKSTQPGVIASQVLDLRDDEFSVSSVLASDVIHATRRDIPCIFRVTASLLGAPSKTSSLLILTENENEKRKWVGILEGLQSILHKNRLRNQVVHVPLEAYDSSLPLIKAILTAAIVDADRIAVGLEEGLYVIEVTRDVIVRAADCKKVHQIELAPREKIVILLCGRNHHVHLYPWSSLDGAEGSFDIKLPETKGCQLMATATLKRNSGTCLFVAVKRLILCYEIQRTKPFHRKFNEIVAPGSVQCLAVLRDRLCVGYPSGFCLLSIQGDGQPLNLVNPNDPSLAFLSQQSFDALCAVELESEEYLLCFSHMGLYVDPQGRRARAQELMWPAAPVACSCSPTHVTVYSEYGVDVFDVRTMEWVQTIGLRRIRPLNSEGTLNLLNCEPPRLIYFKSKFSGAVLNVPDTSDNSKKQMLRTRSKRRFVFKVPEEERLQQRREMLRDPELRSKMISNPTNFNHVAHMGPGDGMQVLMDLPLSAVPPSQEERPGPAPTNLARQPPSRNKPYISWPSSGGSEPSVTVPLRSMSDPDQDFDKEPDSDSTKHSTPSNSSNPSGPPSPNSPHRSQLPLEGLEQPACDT

| Compound | remaining binding at 1 µM (MRCKB) | remaining binding at 1 µM (NDR1) | remaining binding at 1 µM (ABL1-phosphorylated) | remaining binding at 1 µM (SGK3) | remaining binding at 1 µM (CAMK1G) | remaining binding at 1 µM (PAK4) | remaining binding at 1 µM (LIMK2) | remaining binding at 1 µM [1] | remaining binding at 1 µM (YANK3) | remaining binding at 1 µM (GSK3A) | remaining binding at 1 µM (ROS1) | remaining binding at 1 µM (FER) | remaining binding at 1 µM (MAPKAPK5) | remaining binding at 1 µM (KIT(L576P)) |
| --- | --- | --- | --- | --- | --- | --- | --- | --- | --- | --- | --- | --- | --- | --- |
| O=C(c1ccc(-c2cnc3[nH]cc(Cl)c3c2NC2CCCC2)cc1)N1CCC(N2CCOCC2)CC1 [Compound 101, (4-(3-chloro-4-(cyclopentylamino)-1H-pyrrolo[2,3-b]pyridin-5-yl)phenyl)(4-morpholinopiperidin-1-yl)methanone] | 82% | 84% | 97% | 96% | 93% | 100% | 99% | 88% | 57% | 42% | 73% | 100% | 100% | 46% |
| CNc1c(-c2cnn([C@H]3CCN(C(C)=O)C[C@@H]3F)c2)cnc2[nH]cc(Cl)c12 [Compound 77, 1-((3S,4S)-4-(4-(3-chloro-4-(methylamino)-1H-pyrrolo[2,3-b]pyridin-5-yl)-1H-pyrazol-1-yl)-3-fluoropiperidin-1-yl)ethan-1-one] | 86% | 74% | 62% | 37% | 100% | 65% | 97% | 98% | 97% | 98% | 74% | 100% | 100% | 10% |
| CNc1c(-c2ccc(C(=O)N3CCC(N4CCOCC4)CC3)cc2)cnc2[nH]cc(Cl)c12 [Compound 96, (4-(3-chloro-4-(methylamino)-1H-pyrrolo[2,3-b]pyridin-5-yl)phenyl)(4-morpholinopiperidin-1-yl)methanone] | 93% | 69% | 88% | 48% | 98% | 31% | 100% | 91% | 99% | 65% | 89% | 100% | 100% | 19% |
